Experimental data taken from ChEMBL document CHEMBL1201862, “PubChem BioAssay data set” (2004).
Activity calls are given as the source filed them.

What was measured:
Coagulation factor XII = biological target: T1, Coagulation factor XII (Homo sapiens, UniProt P00748); experiment: activated coagulation factor XII inhibitor potency, concentration-effect curve, cell-free (AID 716); format: functional
T1 sequence (P00748 whole entry): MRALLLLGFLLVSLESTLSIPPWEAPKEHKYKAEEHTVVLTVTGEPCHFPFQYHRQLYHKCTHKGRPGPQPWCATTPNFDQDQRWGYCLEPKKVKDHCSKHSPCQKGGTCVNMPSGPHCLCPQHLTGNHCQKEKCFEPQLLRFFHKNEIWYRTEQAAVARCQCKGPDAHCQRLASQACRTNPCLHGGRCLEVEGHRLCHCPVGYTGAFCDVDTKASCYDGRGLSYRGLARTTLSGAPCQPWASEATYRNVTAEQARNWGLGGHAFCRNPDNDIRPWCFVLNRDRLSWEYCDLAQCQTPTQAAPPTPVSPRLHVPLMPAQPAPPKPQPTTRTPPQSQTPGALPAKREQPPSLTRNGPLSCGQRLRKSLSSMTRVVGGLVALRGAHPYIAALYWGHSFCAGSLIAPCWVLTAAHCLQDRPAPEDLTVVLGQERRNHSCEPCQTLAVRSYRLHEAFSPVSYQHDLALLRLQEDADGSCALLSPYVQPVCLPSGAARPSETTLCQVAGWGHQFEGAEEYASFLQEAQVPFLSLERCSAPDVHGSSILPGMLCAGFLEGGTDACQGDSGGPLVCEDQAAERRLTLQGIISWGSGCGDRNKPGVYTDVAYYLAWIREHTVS

[1] = biological target: T2, Tyrosine-protein phosphatase non-receptor type 7 (Homo sapiens, UniProt P35236); experiment: redox-active compounds inhibiting HePTP phosphatase – biochemical, fluorescence, mechanism study (AID 2068); format: functional
T2 sequence (P35236 whole entry): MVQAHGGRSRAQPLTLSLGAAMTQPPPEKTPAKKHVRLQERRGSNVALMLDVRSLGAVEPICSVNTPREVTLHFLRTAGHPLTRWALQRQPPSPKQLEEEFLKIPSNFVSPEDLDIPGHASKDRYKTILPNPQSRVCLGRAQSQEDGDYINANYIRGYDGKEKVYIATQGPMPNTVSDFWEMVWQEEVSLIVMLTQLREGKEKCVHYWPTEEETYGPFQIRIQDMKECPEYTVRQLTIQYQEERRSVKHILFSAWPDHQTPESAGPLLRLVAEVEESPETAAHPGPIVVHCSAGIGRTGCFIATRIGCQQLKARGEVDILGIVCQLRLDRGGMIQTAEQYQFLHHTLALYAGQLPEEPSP

[2] = biological target: Dual specificity protein phosphatase 3 (Homo sapiens, UniProt P51452); experiment: SAR VHR1 Fluorescent Assay for In Vitro dose response studies Set 2. [Related pubchem assays (depositor defined):AID1654, AID1661, AID1878]; format: functional
Sequence of Dual specificity protein phosphatase 3 (P51452 whole entry): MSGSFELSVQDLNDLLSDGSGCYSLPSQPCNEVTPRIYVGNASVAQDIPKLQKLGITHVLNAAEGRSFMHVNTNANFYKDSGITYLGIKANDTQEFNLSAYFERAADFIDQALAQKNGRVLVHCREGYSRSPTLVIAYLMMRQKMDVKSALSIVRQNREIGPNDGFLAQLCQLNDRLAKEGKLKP

[3] = biological target: T3, Dual specificity protein phosphatase 6 (Rattus norvegicus, UniProt Q64346); format: functional;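 also: confirmatory in vitro dose-response testing of MKP-3 inhibition; recombinant His-tagged MKP-3 made in E. coli BL21 with OMFP substrate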
T3 sequence (Q64346 whole entry): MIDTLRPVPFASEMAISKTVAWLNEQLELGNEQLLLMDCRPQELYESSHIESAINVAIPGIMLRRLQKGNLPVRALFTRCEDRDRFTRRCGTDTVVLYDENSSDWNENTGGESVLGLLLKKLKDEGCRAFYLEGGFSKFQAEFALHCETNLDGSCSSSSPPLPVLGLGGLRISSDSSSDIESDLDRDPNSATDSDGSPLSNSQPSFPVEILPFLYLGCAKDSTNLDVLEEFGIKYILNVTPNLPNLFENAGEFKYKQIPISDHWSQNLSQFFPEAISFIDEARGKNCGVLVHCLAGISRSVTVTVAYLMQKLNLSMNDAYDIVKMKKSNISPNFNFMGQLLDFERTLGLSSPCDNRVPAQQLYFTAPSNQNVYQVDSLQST

[4] = biological target: DNA dC->dU-editing enzyme APOBEC-3A (Homo sapiens, UniProt P31941); experiment: Dose Response confirmation of small molecule APOBEC3A DNA Deaminase Inhibitors via a fluorescence-based single-stranded DNA deaminase assay. [Related pubchem assays (depositor defined):AID493011, AID493024]; format: functional
Sequence of DNA dC->dU-editing enzyme APOBEC-3A (P31941 whole entry): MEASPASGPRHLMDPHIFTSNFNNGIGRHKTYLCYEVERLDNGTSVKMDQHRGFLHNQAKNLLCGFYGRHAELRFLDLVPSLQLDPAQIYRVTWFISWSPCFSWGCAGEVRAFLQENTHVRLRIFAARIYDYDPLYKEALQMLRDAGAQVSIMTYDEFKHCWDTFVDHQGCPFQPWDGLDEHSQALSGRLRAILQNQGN

[5] = biological target: DNA dC->dU-editing enzyme APOBEC-3G (Homo sapiens, UniProt Q9HC16); format: functional;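 also: Dose-response counterscreen measuring inhibition of APOBEC3G DNA deaminase activity, run while confirming APOBEC3A inhibitors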
Sequence of DNA dC->dU-editing enzyme APOBEC-3G (Q9HC16 whole entry, the tested form may be a part): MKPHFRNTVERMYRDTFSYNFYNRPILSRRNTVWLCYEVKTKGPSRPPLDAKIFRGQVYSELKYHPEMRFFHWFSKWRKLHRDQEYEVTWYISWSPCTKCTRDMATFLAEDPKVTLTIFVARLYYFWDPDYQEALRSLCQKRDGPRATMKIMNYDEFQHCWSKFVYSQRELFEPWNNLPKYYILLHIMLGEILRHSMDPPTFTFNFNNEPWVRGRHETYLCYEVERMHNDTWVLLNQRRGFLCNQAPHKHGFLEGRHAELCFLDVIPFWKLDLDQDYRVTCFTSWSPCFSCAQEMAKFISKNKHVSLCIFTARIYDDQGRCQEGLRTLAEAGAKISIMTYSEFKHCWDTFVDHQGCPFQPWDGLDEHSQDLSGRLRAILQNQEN

[6] = biological target: 1-acylglycerol-3-phosphate O-acyltransferase ABHD5/Perilipin-5 (Homo sapiens, UniProt Q00G26+Q8WTS1); experiment: Luminescence-based biochemical high throughput dose response assay for inhibitors of the interaction of the lipase co-activator protein, abhydrolase domain containing 5 (ABHD5) with perilipin-5 (MLDP; PLIN5) (2K validation set). [Related pubchem assays (depositor defined):AID493035, AID493241]
Sequence of 1-acylglycerol-3-phosphate O-acyltransferase ABHD5/Perilipin-5 (Q00G26 whole entry, the tested form may be a part): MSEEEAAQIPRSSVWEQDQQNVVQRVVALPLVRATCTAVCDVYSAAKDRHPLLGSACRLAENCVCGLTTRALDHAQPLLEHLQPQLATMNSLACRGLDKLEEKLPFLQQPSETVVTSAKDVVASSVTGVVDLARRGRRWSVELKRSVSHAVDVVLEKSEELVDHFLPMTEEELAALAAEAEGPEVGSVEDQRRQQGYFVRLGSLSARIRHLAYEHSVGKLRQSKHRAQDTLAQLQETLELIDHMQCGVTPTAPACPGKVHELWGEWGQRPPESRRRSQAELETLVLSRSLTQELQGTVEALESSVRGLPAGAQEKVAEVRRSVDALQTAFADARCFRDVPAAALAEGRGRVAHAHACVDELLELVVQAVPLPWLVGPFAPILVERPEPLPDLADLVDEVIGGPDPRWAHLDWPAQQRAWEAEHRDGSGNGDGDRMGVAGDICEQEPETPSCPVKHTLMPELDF
Sequence of 1-acylglycerol-3-phosphate O-acyltransferase ABHD5/Perilipin-5 (Q8WTS1 whole entry, the tested form may be a part): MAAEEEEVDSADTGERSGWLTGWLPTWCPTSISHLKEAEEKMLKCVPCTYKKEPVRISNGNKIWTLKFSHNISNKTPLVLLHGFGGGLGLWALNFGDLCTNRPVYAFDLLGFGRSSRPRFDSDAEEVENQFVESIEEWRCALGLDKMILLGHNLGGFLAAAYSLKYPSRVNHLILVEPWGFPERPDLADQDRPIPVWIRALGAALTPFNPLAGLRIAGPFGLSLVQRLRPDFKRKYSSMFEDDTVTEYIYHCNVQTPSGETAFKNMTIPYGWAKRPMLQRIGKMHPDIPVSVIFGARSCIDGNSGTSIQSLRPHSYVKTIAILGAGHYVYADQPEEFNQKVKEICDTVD

Perilipin-1/ABHD5 = Perilipin-1/ABHD5 (Homo sapiens, UniProt O60240+Q8WTS1); experiment: Luminescence-based biochemical high throughput dose response assay for inhibitors of the interaction of the lipase co-activator protein, abhydrolase domain containing 5 (ABHD5) with perilipin-1 (PLIN1) (2K validation set). [Related pubchem assays (depositor defined):AID493027, AID493057]
Sequence of Perilipin-1/ABHD5 (Q8WTS1 whole entry, the tested form may be a part): as above
Sequence of Perilipin-1/ABHD5 (O60240 whole entry, the tested form may be a part): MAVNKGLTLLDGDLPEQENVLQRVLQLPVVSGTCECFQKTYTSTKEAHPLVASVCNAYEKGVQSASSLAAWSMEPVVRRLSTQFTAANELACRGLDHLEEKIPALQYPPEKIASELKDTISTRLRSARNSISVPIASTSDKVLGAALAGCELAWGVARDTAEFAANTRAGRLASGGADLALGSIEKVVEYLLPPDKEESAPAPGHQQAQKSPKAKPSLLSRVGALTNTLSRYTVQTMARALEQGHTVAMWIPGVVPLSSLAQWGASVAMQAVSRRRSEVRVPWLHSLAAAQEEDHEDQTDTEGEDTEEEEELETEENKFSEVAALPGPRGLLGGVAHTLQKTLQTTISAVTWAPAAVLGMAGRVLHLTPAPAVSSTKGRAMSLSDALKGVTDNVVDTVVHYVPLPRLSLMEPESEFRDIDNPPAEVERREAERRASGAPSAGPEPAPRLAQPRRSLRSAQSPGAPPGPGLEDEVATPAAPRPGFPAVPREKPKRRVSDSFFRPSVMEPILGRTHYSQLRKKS

Cytochrome P450 2C9 = Cytochrome P450 2C9 (Homo sapiens, UniProt P11712)
Sequence of Cytochrome P450 2C9 (P11712 whole entry): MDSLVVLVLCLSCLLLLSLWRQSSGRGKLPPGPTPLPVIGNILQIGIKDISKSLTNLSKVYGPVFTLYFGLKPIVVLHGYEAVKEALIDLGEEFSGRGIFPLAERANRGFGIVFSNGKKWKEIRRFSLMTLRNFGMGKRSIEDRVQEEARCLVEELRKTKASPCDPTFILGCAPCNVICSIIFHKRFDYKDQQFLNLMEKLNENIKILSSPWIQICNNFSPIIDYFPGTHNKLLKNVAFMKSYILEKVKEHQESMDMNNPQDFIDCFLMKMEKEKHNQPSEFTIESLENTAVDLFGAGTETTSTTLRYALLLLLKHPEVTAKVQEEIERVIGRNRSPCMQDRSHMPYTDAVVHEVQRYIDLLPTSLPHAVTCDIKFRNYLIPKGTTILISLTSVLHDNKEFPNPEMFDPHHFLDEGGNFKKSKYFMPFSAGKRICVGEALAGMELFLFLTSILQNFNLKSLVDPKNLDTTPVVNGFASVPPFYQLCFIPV

Question: With `O=C(O)COc1ccc2c(c1)OCCO2` as the compound, how does the IC50 (Coagulation factor XII) read?
Answer: > 50 µM (inactive)

Question: Which IC50 [1] does the source give for `NS(=O)(=O)c1cc(C(=O)Nc2cccc(Cl)c2)ccc1Cl` here?
Answer: > 100 µM (inactive)

Question: What about the IC50 [2] of the same compound?
Answer: > 100 µM (inactive)

Question: What about the IC50 [3] of the same compound?
Answer: > 100 µM (inactive)

Question: Which results are given for `CCc1ccc(OCC(=O)N/N=C\c2ccco2)c([N+](=O)[O-])c1`?
Answer: IC50 [4]: 18.6 µM (active); IC50 [5]: 39.8 µM (active)

Question: What does the source list for `CC1=CC(=O)c2ccccc2C1=O` [MENADIONE]?
Answer: IC50 [6]: 9.47 µM (active); IC50 (Perilipin-1/ABHD5): 7.9 µM (active); AC50 (Cytochrome P450 2C9): 6.31 µM (inconclusive)
